Laboratory results reported in patent US20240156861A1, “Cisplatin particles and uses thereof” (CRITITECH, INC., priority 2022, published 2024).

Assays:
Assay type in all cases: physicochemical
[1] = Particle Size Distribution (PSD) by laser diffraction, Malvern Mastersizer 3000; settings: dispersed in ethyl acetate
Experimental: Particle Size Distribution (PSD) by Laser Diffraction
Particle size analyses were conducted on a Malvern Mastersizer™ 3000 using the Hydro MV dispersion unit. A non-validated general PSD method/dispersant method was used to analyze the cisplatin samples. The sample preparation procedure performed was as follows:
Weigh 10 to 20 mg of cisplatin into a 30-mL vial, add 20 mL of ethyl acetate. Disperse the sample by vortexing then sonicating the suspension in an ultrasonic bath for 1 minute. Then transfer the sample suspension to the Malvem Hydro MV dispersion unit to obtain obscuration between 5 and 15%.

[2] = Specific Surface Area (SSA) by BET sorptometry
Experimental: As used herein, the “specific surface area” is the total surface area of the cisplatin particle per unit of cisplatin mass as measured by the Brunauer—Emmett—Teller (“BET”) isotherm (i.e.: the BET SSA). As will be understood by those of skill in the art, the SSA is determined on a per gram basis and takes into account both agglomerated and non-agglomerated cisplatin particles in the composition. The BET specific surface area test procedure is a compendial method included in both the United States Pharmaceopeia and the European Pharmaceopeia. The cisplatin particles have a specific surface area (SSA) of at least 3.5 m^2/g. In various further embodiments, the cisplatin particles have a SSA of at least 4 m^2/g, 5 m^2/g, 6 m^2/g, 7 m^2/g, 8 m^2/g, 9 m^2/g, 10 m^2/g, 11 m^2/g, 12 m^2/g, 13 m^2/g, 14 m^2/g, […] m^2/g, 17 m^2/g, 18 m^2/g, 19 m^2/g 20 m^2/g 21 m^2/g, 22 m^2/g, 23 m^2/g, or 24 m^2/g.
Specific Surface Area (SSA) determination by BET Sorptometry
Surface area analyses were conducted on a Quantachrome NOVAtouch™ LX2 BET Sorptometer. […] Surface area results can be found in Table 1.

[3] = Bulk density analysis (modified USP <616> Method I, 10 mL graduated cylinder); settings: not tapped
Experimental: As used herein, the bulk density of the cisplatin particles is the mass of the totality of particles in the composition divided by the total volume they occupy when poured into a graduated cylinder and not tapped. The total volume includes particle volume, inter-particle void volume, and internal pore volume.
Bulk density analysis by modified USP <616>Bulk Density of Powders Method I
Bulk density analyses were conducted using a 10 mL graduated cylinder due to low sample volume. SC1 was the only precipitate measured due to insufficient materials available for analysis from SC2 and SC3. […] Bulk density results can be seen in Table 1.

N.N.[Cl][Pt][Cl] [Raw, Cisplatin]
PSD - Mastersizer Dv10 [1]: 1.72 μm
PSD - Mastersizer Dv50 [1]: 10.9 μm
PSD - Mastersizer Dv90 [1]: 25.9 μm
Surface Area [2]: 2.44 m^2/g
Bulk Density [3]: 1.01 g/mL
